Each structure is given as a SMILES string.

Broadly, the IC50 is the concentration that inhibits the measured activity by half.

The first experiment has as its target CRBN protein (Homo sapiens, UniProt Q96SW2). The experiment can be described thus: Binding activity to E3 ubiquitin ligase CRBN (HTRF competitive binding kit, Thalidomide-Red).
Details: not given
The text has this: Binding activity of the E3 ligase inhibitor disclosed in the present invention to E3 ubiquitin ligase CRBN
CRBN binding activity test kit (CEREBLON BINDING KITS (PE, 64BD CRBN PEG).
The detection is based on homogeneous time-resolved fluorescence (HTRF) technology.
This kit uses a europium-labeled GST antibody (GST Eu Cryptate Antibody) as the donor and XL665-labeled thalidomide (Thalidomide-Red reagent) as the receptor. The donor binds to the GST-tagged CRBN protein.
The donor and receptor were each diluted 50-fold using the buffer provided in the kit (PROTAC binding buffer 1). The CRBN protein was diluted 45-fold. An 8mM solution of the compound disclosed herein was diluted 10-fold using the diluent provided in the kit (1X diluent), followed by 7 successive 5-fold serial dilutions of the resulting solution.
The ratio of the acceptor and donor emission signals was calculated for each individual well.
IC50 values was calculated based on compound concentration, Ratio, and coefficient of variation using GraphPad Prism.
In turn, `COc1cc2c(cc1C(=O)N[C@H]1CCC(=O)NC1=O)COC[C@H]1CNCCN21` [Compound B10, (R)-N-((S)-2,6-Dioxopiperidin-3-yl)-10-methoxy-1,2,3,4,4a,5-hexahydro-7H-benzo[e]pyrazino[2,1-c][1,4]oxacyclopropane-9-amide] showed an IC50 of 22.4 µM.
On the same count and under the same terms, as for `O=C1CC[C@H](NC(=O)c2cc3c(cc2F)CCC2(CNC2)O3)C(=O)N1` [Compound A7, (S)-N-(2,6-dioxopiperidin-3-yl)-6-fluoro-spiroazetidine-3,2-dihydropyridine-7-carboxamide], the figure is 27.4 µM; as for `Cn1c(=O)n(C2CCC(=O)NC2=O)c2ccc3c(c21)C1(CCNCC1)CO3` (stereo not shown) [Compound D4, 3-(1-Methyl-2-oxo-1,2-dihydro-3H,7H-spiro[benzofuran[4,5-d]imidazole-8,4'-piperidine]-3-yl)piperidine-2,6-dione], 2.3 µM.
On the same count and under the same terms, as for `O=C1CCC(N2Cc3c(ccc4c3OCC43CCC4(CCNCC4)CC3)C2=O)C(=O)N1` (stereo not shown) [Compound D8], the figure is 0.56 µM.

Still in this experiment, the particulars now being: competition with XL665-labeled thalidomide for GST-tagged CRBN protein, HTRF, 3 hours at room temperature.
Compound `COc1cc2c(cc1C(=O)N[C@H]1CCC(=O)NC1=O)CCC1(CCNCC1)O2` [Compound A11, (S)-N-(2,6-dioxyhesperidin-3-yl)-7-methoxyspiro[chroman-2,4'-piperidine]-6-carboxamide] showed a half-maximal inhibitory concentration (IC50) of 14.4 µM.

The same experiment, now with this note: competition with XL665-labeled thalidomide for GST-tagged CRBN protein, HTRF, 3 hours at room temperature; read-out: IC50.
`O=C1CCC(Nc2ccc3c(c2)N2CCNC[C@@H]2CO3)C(=O)N1` (stereo partly drawn) [Compound C9, 3-(((R)-1,2,3,4,4a,5-Hexahydrobenzo[b]pyrazine[1,2-d][1,4]oxazine-9-yl)amino)piperidine-2,6-dione]: the IC50 is 12.8 µM.
Consider `O=C1CCC(Nc2ccc3c(c2)OC[C@@H]2CNCCN32)C(=O)N1` (stereo partly drawn) [Compound C16, 3-(((S)-1,2,3,4,4a,5-hexahydrobenzo[b]pyrazine[1,2-d][1,4]oxazine-8-yl)amino)piperidine-2,6-dione], for which the IC50 was 2.16 µM.
On to `COc1cc2c(cc1C(=O)N[C@H]1CCC(=O)NC1=O)C1(CCNCC1)CO2` [Compound A9, (S)-N-(2,6-dioxopiperidin-3-yl)-6-methoxy-2H-spiro[benzofuran-3,4'-piperidine]-5-carboxamide], for which the IC50 is 29.1 µM.
As for `Cn1c(=O)n(C2CCC(=O)NC2=O)c2ccc3c(c21)OC[C@H]1CNCCN31` (stereo in doubt) [Compound D6, 3-((R)-3-Methyl-2-oxo-2,3,5,5a,6,7,8,9-octahydro-1H-imidazo[4',5':5,6]benzo[1,2-b]pyrazino[1,2-d][1,4]oxazine-1-yl)piperidine-2,6-dione], the IC50 was 0.55 µM.
On the same count and under the same terms, as for `O=C1CCC(Nc2ccc3c(c2)OCC32CCNCC2)C(=O)N1` (stereo not shown) [Compound C1], the figure is 1.9 µM; as for `O=C1CCC(Nc2ccc3c(c2)OC2(CCNCC2)C3)C(=O)N1` (stereo not shown) [Compound C5, 3-((3H-spiro[benzofuran-2,4'-piperidine]-6-yl)amino)piperidine-2,6-dione], 5.45 µM.
Turning to `O=C1CCC(Nc2ccc3c(c2)C2(CCNCC2)CO3)C(=O)N1` (stereo not shown) [Compound C2, 3-((2H-spiro[benzofuran-3,4'-piperidine]-5-yl)amino)piperidine-2,6-dione], the IC50 came out at 90.5 µM.
For the compound `CN(c1ccc2c(c1)OCC21CCNCC1)C1CCC(=O)NC1=O` (stereo not shown) [Compound C15, 3-(Methyl(2H-spiro[benzofuran-3,4'-piperidine]-6-yl)amino)piperidine-2,6-dione], the IC50 came out at 0.72 µM.
Same read-out and setting: the same measure for `O=C1CCC(N2Cc3c(ccc4c3OCC43CCC4(CC3)CNC4)C2=O)C(=O)N1` (stereo not shown) [Compound D9, 3-(6''-oxo-6''-,8''-dihydro-2''-H,7''-H-dipyrazolo[azetidin-3,1'-cyclohexane-4'-, 3"-furan[2,3-e]isoindole]-7"-yl)piperidine-2,6-dione]: 0.65 µM; for `O=C1CCC(Nc2ccc3c(c2)COC[C@H]2CNCCN32)C(=O)N1` (stereo partly shown) [Compound C13]: 8.39 µM.
For the compound `O=C1CCC(Nc2ccc3c(c2)OC2(CC3)CNC2)C(=O)N1` (stereo not shown) [Compound C7, 3-(Spiro[azetidin-3,2'-chroman]-7'-ylamino)piperidine-2,6-dione], the IC50 stood at 10.2 µM.
